According to the NIST ThermoML archive (doi:10.1021/acs.jced.9b00306):
Numbers after ± are expanded uncertainties.

Details: Liquid, Ebulliometric method (Recirculating still)

## OCCCCCCO [1,6-hexanediol]
456.93 K
  vapor or sublimation pressure: 10 ± 1 kPa
474.79 K
  vapor or sublimation pressure: 20 ± 1 kPa
525.1 K
  vapor or sublimation pressure: 99 ± 1 kPa

## O [water]
373.15 K
  vapor or sublimation pressure: 101.3 ± 1.6 kPa

## COC(=O)CCCCC(=O)OC [dimethyl 1,6-hexanedioate]
424.91 K
  vapor or sublimation pressure: 7.79 ± 0.51 kPa
431.2 K
  vapor or sublimation pressure: 10 ± 1 kPa
441.21 K
  vapor or sublimation pressure: 14.56 ± 0.52 kPa
450.08 K
  vapor or sublimation pressure: 20 ± 1 kPa
460.47 K
  vapor or sublimation pressure: 28.55 ± 0.59 kPa
474.33 K
  vapor or sublimation pressure: 44.63 ± 0.63 kPa
480.72 K
  vapor or sublimation pressure: 54.37 ± 0.72 kPa
488.62 K
  vapor or sublimation pressure: 68.77 ± 0.79 kPa
496.14 K
  vapor or sublimation pressure: 85.45 ± 0.89 kPa
501 K
  vapor or sublimation pressure: 99 ± 1 kPa
504.86 K
  vapor or sublimation pressure: 108.77 ± 1 kPa
512 K
  vapor or sublimation pressure: 131.95 ± 1.2 kPa
518.78 K
  vapor or sublimation pressure: 157.68 ± 1.3 kPa
523.92 K
  vapor or sublimation pressure: 179.21 ± 1.5 kPa
531.44 K
  vapor or sublimation pressure: 216.3 ± 1.6 kPa

## CO [methanol]
337.69 K
  vapor or sublimation pressure: 101.3 ± 1.6 kPa
